From US20140323300A1, “HERBICIDAL COMPOUNDS” (SYNGENTA LIMITED, priority 2011, published 2014)

Tests used:
Type in all cases: in vivo
[1] = tested on: Alopecurus myosuroides (ALOMY); test: Post-emergence glasshouse herbicide test; conditions: post-emergence (sprayed after 8 days cultivation), 1000 g/h, evaluated after 13 days, five point scale
Description: (§1) Seeds of a variety of test species are sown in standard soil in pots (Alopecurus myosuroides (ALOMY), Setaria faberi (SETFA), Echinochloa crus-galli (ECHCG), Solanum nigrum (SOLNI), Amaranthus retoflexus (AMARE), Ipomoea hederacea (IPOHE)). After cultivation for one day (pre-emergence) or after 8 days cultivation (post-emergence) under controlled conditions in a glasshouse (at 24/16° C., day/night; 14 hours light; 65% humidity), the plants are sprayed with an aqueous spray solution derived from the formulation of the technical active ingredient in acetone/water (50:50) solution containing 0.5% Tween 20 (polyoxyethelyene sorbitan monolaurate, CAS RN 9005-64-5). Compounds are applied at 1000 g/h. The test plants are then grown in a glasshouse under controlled conditions in a glasshouse (at 24/16° C., day/night; 14 hours light; 65% humidity) and watered twice daily. After 13 days for pre and post-emergence, the test is evaluated for the percentage damage caused to the plant. The biological activities are shown in the following table on a five point scale (5=80-100%; 4=60-79%; 3=40-59%; 2=20-39%; 1=0-19%).

[2] = tested on: Amaranthus retoflexus (AMARE); test: Post-emergence glasshouse herbicide test; conditions: post-emergence (sprayed after 8 days cultivation), 1000 g/h, evaluated after 13 days, five point scale
Description: as §1

[3] = tested on: Echinochloa crus-galli (ECHCG); test: Post-emergence glasshouse herbicide test; conditions: post-emergence (sprayed after 8 days cultivation), 1000 g/h, evaluated after 13 days, five point scale
Description: as §1

[4] = tested on: Ipomoea hederacea (IPOHE); test: Post-emergence glasshouse herbicide test; conditions: post-emergence (sprayed after 8 days cultivation), 1000 g/h, evaluated after 13 days, five point scale
Description: as §1

Setaria faberi (SETFA) [5] = test: Post-emergence glasshouse herbicide test; conditions: post-emergence (sprayed after 8 days cultivation), 1000 g/h, evaluated after 13 days, five point scale
Description: as §1

Solanum nigrum (SOLNI) [6] = test: Post-emergence glasshouse herbicide test; conditions: post-emergence (sprayed after 8 days cultivation), 1000 g/h, evaluated after 13 days, five point scale
Description: as §1

[7] = tested on: Alopecurus myosuroides (ALOMY); test: Pre-emergence glasshouse herbicide test; conditions: pre-emergence (sprayed after one day cultivation), 1000 g/h, evaluated after 13 days, five point scale
Description: as §1

[8] = tested on: Amaranthus retoflexus (AMARE); test: Pre-emergence glasshouse herbicide test; conditions: pre-emergence (sprayed after one day cultivation), 1000 g/h, evaluated after 13 days, five point scale
Description: as §1

[9] = tested on: Echinochloa crus-galli (ECHCG); test: Pre-emergence glasshouse herbicide test; conditions: pre-emergence (sprayed after one day cultivation), 1000 g/h, evaluated after 13 days, five point scale
Description: as §1

[10] = tested on: Ipomoea hederacea (IPOHE); test: Pre-emergence glasshouse herbicide test; conditions: pre-emergence (sprayed after one day cultivation), 1000 g/h, evaluated after 13 days, five point scale
Description: as §1

Setaria faberi (SETFA) [11] = test: Pre-emergence glasshouse herbicide test; conditions: pre-emergence (sprayed after one day cultivation), 1000 g/h, evaluated after 13 days, five point scale
Description: as §1

Solanum nigrum (SOLNI) [12] = test: Pre-emergence glasshouse herbicide test; conditions: pre-emergence (sprayed after one day cultivation), 1000 g/h, evaluated after 13 days, five point scale
Description: as §1

Row | SMILES | percentage damage caused to the plant, POST Application ALOMY [1] | percentage damage caused to the plant, POST Application AMARE [2] | percentage damage caused to the plant, POST Application ECHCG [3] | percentage damage caused to the plant, POST Application IPOHE [4] | percentage damage caused to the plant, POST Application SETFA (Setaria faberi (SETFA) [5]) | percentage damage caused to the plant, POST Application SOLNI (Solanum nigrum (SOLNI) [6]) | percentage damage caused to the plant, PRE Application ALOMY [7] | percentage damage caused to the plant, PRE Application AMARE [8] | percentage damage caused to the plant, PRE Application ECHCG [9] | percentage damage caused to the plant, PRE Application IPOHE [10] | percentage damage caused to the plant, PRE Application SETFA (Setaria faberi (SETFA) [11]) | percentage damage caused to the plant, PRE Application SOLNI (Solanum nigrum (SOLNI) [12])
1 | Cc1c(-n2ncc(C(C)C)c(O)c2=O)ccc(S(C)(=O)=O)c1C1=NOCC1 [Compound 1.010] | 5 (5=80-100%) | 5 (5=80-100%) | 5 (5=80-100%) | 5 (5=80-100%) | 5 (5=80-100%) | 5 (5=80-100%) | 3 (3=40-59%) | 5 (5=80-100%) | 3 (3=40-59%) | 1 (1=0-19%) | 2 (2=20-39%) | 1 (1=0-19%)
2 | Cc1c(-n2ncc(S(C)(=O)=O)c(O)c2=O)ccc(S(C)(=O)=O)c1C1=NOCC1 [Compound 1.011, 2-[3-(4,5-dihydroisoxazol-3-yl)-2-methyl-4-methylsulfonyl-phenyl]-4-hydroxy-5-methylsulfonyl-pyridazin-3-one] | 5 (5=80-100%) | 5 (5=80-100%) | 5 (5=80-100%) | 5 (5=80-100%) | 5 (5=80-100%) | 5 (5=80-100%) | 5 (5=80-100%) | 5 (5=80-100%) | 5 (5=80-100%) | 5 (5=80-100%) | 5 (5=80-100%) | 5 (5=80-100%)
3 | Cc1c(-n2ncc(Br)c(O)c2=O)ccc(S(C)(=O)=O)c1C1=NOCC1 [Compound 1.013] | 5 (5=80-100%) | 5 (5=80-100%) | 5 (5=80-100%) | 5 (5=80-100%) | 5 (5=80-100%) | 5 (5=80-100%) | 4 (4=60-79%) | 5 (5=80-100%) | 5 (5=80-100%) | 4 (4=60-79%) | 5 (5=80-100%) | 5 (5=80-100%)
4 | COc1cnn(-c2ccc(C(F)(F)F)cc2C(F)(F)F)c(=O)c1O [Compound 1.014] | 1 (1=0-19%) | 5 (5=80-100%) | 1 (1=0-19%) | 3 (3=40-59%) | 4 (4=60-79%) | 5 (5=80-100%) | 1 (1=0-19%) | 1 (1=0-19%) | 1 (1=0-19%) | 1 (1=0-19%) | 1 (1=0-19%) | 1 (1=0-19%)
5 | O=c1c(O)c(Cl)cnn1-c1ccc(C(F)(F)F)cc1C(F)(F)F [Compound 1.015] | 5 (5=80-100%) | 5 (5=80-100%) | 5 (5=80-100%) | 5 (5=80-100%) | 5 (5=80-100%) | 5 (5=80-100%) | 1 (1=0-19%) | 5 (5=80-100%) | 2 (2=20-39%) | 4 (4=60-79%) | 1 (1=0-19%) | 5 (5=80-100%)
6 | Cc1cnn(-c2ccc(S(C)(=O)=O)c(C3=NOCC3)c2C)c(=O)c1O [Compound 1.016, 2-[3-(4,5-dihydroisoxazol-3-yl)-2-methyl-4-methylsulfonyl-phenyl]-4-hydroxy-5-methyl-pyridazin-3-one] | 5 (5=80-100%) | 5 (5=80-100%) | 5 (5=80-100%) | 5 (5=80-100%) | 5 (5=80-100%) | 5 (5=80-100%) | 5 (5=80-100%) | 5 (5=80-100%) | 5 (5=80-100%) | 4 (4=60-79%) | 5 (5=80-100%) | 5 (5=80-100%)
7 | CS(=O)(=O)c1ccc(-n2ncc(Cl)c(O)c2=O)c(Cl)c1C1=NOCC1 [Compound 1.017] | 5 (5=80-100%) | 5 (5=80-100%) | 5 (5=80-100%) | 5 (5=80-100%) | 5 (5=80-100%) | 5 (5=80-100%) | 5 (5=80-100%) | 5 (5=80-100%) | 5 (5=80-100%) | 5 (5=80-100%) | 5 (5=80-100%) | 5 (5=80-100%)
8 | CSc1cnn(-c2ccc(S(C)(=O)=O)c(C3=NOCC3)c2C)c(=O)c1O [Compound 1.018, 2-[3-(4,5-dihydroisoxazol-3-yl)-2-methyl-4-methylsulfonyl-phenyl]-4-hydroxy-5-methylsulfanyl-pyridazin-3-one] | 2 (2=20-39%) | 5 (5=80-100%) | 2 (2=20-39%) | 5 (5=80-100%) | 2 (2=20-39%) | 5 (5=80-100%) | 2 (2=20-39%) | 5 (5=80-100%) | 2 (2=20-39%) | 5 (5=80-100%) | 2 (2=20-39%) | 5 (5=80-100%)
